Test results reported in patent US20260317367A1, “SALTS INCLUDING CRYSTALLINE SALTS OF 25-HYDROXY-CHOLEST-5-EN-3-SULFATE AND METHODS FOR PREPARING SAME” (Durect Corporation, priority 2022, published 2026).
Structures can show the parent of a compound that is named as a salt.

Tests used:
[1] = X-ray powder diffraction before and after DVS (form stability); type: physicochemical; settings: 5% to 95% RH
Method: XRPD patterns were collected with a PANalytical X'Pert PRO MPD or a PANalytical Empyrean diffractometer using an incident beam of Cu radiation produced using an Optix long, fine-focus source. An elliptically graded multilayer mirror was used to focus Cu Kα X-rays through the specimen and onto the detector. Prior to the analysis, a silicon specimen (NIST SRM 640f) was analyzed to verify the observed position of the Si 111 peak is consistent with the NIST-certified position. A specimen of the sample was sandwiched between 3-μm-thick films and analyzed in transmission geometry. A beam-stop, short antiscatter extension, and antiscatter knife edge were used to minimize the background generated by air. Soller slits for the incident and diffracted beams were used to minimize broadening and asymmetry from axial divergence. Diffraction patterns were collected using a scanning position-sensitive detector (X'Celerator) located 240 mm from the specimen and Data Collector software v. 5.5. All images have the instrument labeled as X'Pert PRO MPD regardless of the instrument used.
XRPD patterns were collected with a PANalytical X'Pert PRO MPD diffractometer using an incident beam of Cu Kα radiation produced using a long, fine-focus source and a nickel filter. The diffractometer was configured using the symmetric Bragg-Brentano geometry. Prior to the analysis, a silicon specimen (NIST SRM 640f) was analyzed to verify the observed position of the Si 111 peak is consistent with the NIST-certified position. A specimen of the sample was prepared as a thin, circular layer centered on a silicon zero-background substrate. Antiscatter slits (SS) were used to minimize the background generated by air. Soller slits for the incident and diffracted beams were used to minimize broadening from axial divergence. Diffraction patterns were collected using a scanning position-sensitive detector (X'Celerator) located 240 mm from the sample and Data Collector software v. 5.5
Dynamic vapor sorption data was collected on a Surface Measurement System DVS Intrinsic instrument. The samples were not dried prior to analysis. Sorption and desorption data were collected over a range from 5% to 95% RH in 10% RH increments under a nitrogen purge. The equilibrium criteria used for the analyses were 0.001 dm/dt weight change in 5 minutes with a minimum step time of 30 minutes and maximum equilibration time of 180 minutes with a 3 minute data logging interval. Data were not corrected for the initial moisture content of the sample.

[2] = Solubility of the lysine salt in solvents for NMR analysis; type: physicochemical
Text: Use of TFA as solvent cleaves the sulfate group at the C3 position. ^1H-NMR analysis (CF3COOD) indicated a 1/1 ratio of lysine to cholesterol, as well as ~0.2 eq. triethylamine and some iPrOH.

## CC(CCCC(C)(C)O)C1CCC2C3CC=C4CC(OS(=O)(=O)O)CCC4(C)C3CCC12C (centres unmarked) [Salt #1]
[1]; listed as crystalline 25HC3S potassium
  Change of x-ray powder diffraction pattern after DVS (in words): not an appreciable change

## CC(CCCC(C)(C)O)C1CCC2C3CC=C4CC(OS(=O)(=O)O)CCC4(C)C3CCC12C (centres unmarked) [Salt #2]
[1]; listed as crystalline 25HC3S calcium
  Change of x-ray powder diffraction pattern after DVS (in words): not an appreciable change

## CC(CCCC(C)(C)O)C1CCC2C3CC=C4CC(OS(=O)(=O)O)CCC4(C)C3CCC12C (centres unmarked) [Salt #4]
[1]; listed as crystalline 25HC3S choline
  Change of x-ray powder diffraction pattern after DVS (in words): does not appreciably change

## CC(CCCC(C)(C)O)C1CCC2C3CC=C4CC(OS(=O)(=O)O)CCC4(C)C3CCC12C (centres unmarked) [Salt #5]
[1]; listed as crystalline 25HC3S hydroxyethylammonium
  Change of x-ray powder diffraction pattern after DVS (in words): appearance of extra x-ray powder diffraction peaks

## CC(CCCC(C)(C)O)C1CCC2C3CC=C4CC(OS(=O)(=O)O)CCC4(C)C3CCC12C (centres unmarked) [Salt #6]
[1]; listed as crystalline 25HC3S hydroxyethylpyrrolidinium
  Change of x-ray powder diffraction pattern after DVS (in words): different than before

## CC(CCCC(C)(C)O)C1CCC2C3CC=C4CC(OS(=O)(=O)O)CCC4(C)C3CCC12C (centres unmarked) [Salt #8]
[1]; listed as crystalline 25HC3S tromethammonium
  Change of x-ray powder diffraction pattern after DVS (in words): some potential differences

## C[C@H](CCCC(C)(C)O)[C@H]1CC[C@H]2[C@@H]3CC=C4C[C@@H](OS(=O)(=O)O)CC[C@]4(C)[C@H]3CC[C@]12C [Salt #14]
[2]; any other common organic solvents or acidic or basic aqueous solutions
  Solubility in other solvents (in words): No solubility was detected
[2]; trifluoroacetic acid
  Solubility in trifluoroacetic acid (in words): only adequately soluble in trifluoroacetic acid
